Data set [1] concerns urinary metabolic markers. Nature of the data set: 38-person study: amino acid challenge, overnight urinary organic acid profile pre vs post challenge. The data set is classed as in vivo, human. As to conditions: in some subjects. Here is the method:
An initial pilot study was conducted using 3 subjects. A second study was conducted using 38 adult subjects who were chosen as having no diagnosed diseases and normal work habits. […] On two consecutive nights urine was collected for performing analysis of 46 compounds included in a profile of organic acids. On the second night, a single bolus of crystalline pure L-amino acids was consumed dissolved in water. All amino acids used were L-stereoisomers unless designated otherwise by the “D-”prefix. In the 3-person pilot, dosing included tyrosine, valine, leucine, isoleucine, histidine, and tryptophan as free-form or chloride salts at a total load of approximately 400 mg/kg body weight. For the 38-subject study, the dosing formula included a similar mixture containing alanine, valine, leucine, isoleucine, histidine, and tryptophan. Table 1 summarizes the amino acids included in the challenge formula, urinary metabolic markers affected and related nutrients or metabolic effects. The Amino acid challenge dose protocol was as follows. For 2 consecutive nights, participants collected overnight urine specimens. On the second night, before going to bed, they took approximately 400 mg/kg body weight of the challenge dose of amino acids. […]

The conditions of data set [2]: up to 15 g, human studies; cited from earlier work.

We go through two molecules from patent US20130091932A1, “Process and Method for Broad Spectrum Amino Acid Challenged Urinary Organic Acids” (priority 2011, published 2013).

Structures are written as SMILES.

For the molecule `C[C@H](N)C(=O)O` [L-alanine], the “levels of pyruvate, succinate, fumarate and malate” value in data set [1] is listed as “increased levels”.

In the case of `N[C@@H](Cc1c[nH]cn1)C(=O)O` [L-histidine], in data set [2], the safety of administration entry is given as “administered safely”.
